Tests used:
Type in all cases: ADME
Cytochrome P450 2A6 [1] = molecular target: T1, Cytochrome P450 2A6 (Homo sapiens, UniProt P11509); assay: Activity at CYP2A6 in human liver microsomes isolated from donors assessed as metabolite formation after 24 mins by HPLC-RA analysis; details: 0.4 h
Cytochrome P450 2C8 = Cytochrome P450 2C8 (Homo sapiens, UniProt P10632); assay: Activity at CYP2C8 in human liver microsomes isolated from donors assessed as metabolite formation after 24 mins by HPLC-RA analysis; details: 0.4 h
Cytochrome P450 2C19 = Cytochrome P450 2C19 (Homo sapiens, UniProt P33261); assay: Activity at CYP2C19 in human liver microsomes isolated from donors assessed as metabolite formation after 24 mins by HPLC-RA analysis; details: 0.4 h
Cytochrome P450 2D6 = Cytochrome P450 2D6 (Homo sapiens, UniProt P10635); assay: Activity at CYP2D6 in human liver microsomes isolated from donors assessed as metabolite formation after 24 mins by HPLC-RA analysis; details: 0.4 h
Cytochrome P450 1A2 = Cytochrome P450 1A2 (Homo sapiens, UniProt P05177); assay: Activity at CYP1A2 in human liver microsomes isolated from donors assessed as metabolite formation after 24 mins by HPLC-RA analysis; details: 0.4 h
Cytochrome P450 3A4 = Cytochrome P450 3A4 (Homo sapiens, UniProt P08684); assay: Activity at CYP3A4 in human liver microsomes isolated from donors assessed as metabolite formation after 24 mins by HPLC-RA analysis; details: 0.4 h
Cytochrome P450 2E1 = Cytochrome P450 2E1 (Homo sapiens, UniProt P05181); assay: Activity at human recombinant CYP2E1 expressed in baculovirus-infected BTI-TN-5B1-4 insect cell microsomes assessed as metabolite formation at 5 to 100 uM after 30 mins by HPLC-RA analysis; details: bti-tn-5b1-4, 0.5 h
Cytochrome P450 1A1 = Cytochrome P450 1A1 (Homo sapiens, UniProt P04798); assay: Activity at human recombinant CYP1A1 expressed in baculovirus-infected BTI-TN-5B1-4 insect cell microsomes assessed as metabolite formation at 5 to 100 uM after 30 mins by HPLC-RA analysis; details: bti-tn-5b1-4, 0.5 h
Cytochrome P450 1B1 = Cytochrome P450 1B1 (Homo sapiens, UniProt Q16678); assay: Activity at human recombinant CYP1B1 expressed in baculovirus-infected BTI-TN-5B1-4 insect cell microsomes assessed as metabolite formation at 5 to 100 uM after 30 mins by HPLC-RA analysis; details: bti-tn-5b1-4, 0.5 h
Cytochrome P450 2A6 [2] = molecular target: T1, Cytochrome P450 2A6; assay: Activity at human recombinant CYP2A6 expressed in baculovirus-infected BTI-TN-5B1-4 insect cell microsomes assessed as metabolite formation at 5 to 100 uM after 30 mins by HPLC-RA analysis; details: bti-tn-5b1-4, 0.5 h
Cytochrome P450 2B6 = Cytochrome P450 2B6 (Homo sapiens, UniProt P20813); assay: Activity at human recombinant CYP2B6 expressed in baculovirus-infected BTI-TN-5B1-4 insect cell microsomes assessed as metabolite formation at 5 to 100 uM after 30 mins by HPLC-RA analysis; details: bti-tn-5b1-4, 0.5 h
Cytochrome P450 2C9 = Cytochrome P450 2C9 (Homo sapiens, UniProt P11712); assay: Activity at human recombinant CYP2C9 expressed in baculovirus-infected BTI-TN-5B1-4 insect cell microsomes assessed as metabolite formation at 5 to 100 uM after 30 mins by HPLC-RA analysis; details: bti-tn-5b1-4, 0.5 h
Cytochrome P450 2J2 = Cytochrome P450 2J2 (Homo sapiens, UniProt P51589); assay: Activity at human recombinant CYP2J2 expressed in baculovirus-infected BTI-TN-5B1-4 insect cell microsomes assessed as metabolite formation at 5 to 100 uM after 30 mins by HPLC-RA analysis; details: bti-tn-5b1-4, 0.5 h
Cytochrome P450 3A5 = Cytochrome P450 3A5 (Homo sapiens, UniProt P20815); assay: Activity at human recombinant CYP3A5 expressed in baculovirus-infected BTI-TN-5B1-4 insect cell microsomes assessed as metabolite formation at 5 to 100 uM after 30 mins by HPLC-RA analysis; details: bti-tn-5b1-4, 0.5 h
Cytochrome P450 4F3 = Cytochrome P450 4F3 (Homo sapiens, UniProt Q08477); assay: Activity at human recombinant CYP4F3A expressed in baculovirus-infected BTI-TN-5B1-4 insect cell microsomes assessed as metabolite formation at 5 to 100 µM after 30 mins by HPLC-RA analysis; details: bti-tn-5b1-4, 0.5 h
Aromatase = Aromatase (Homo sapiens, UniProt P11511); assay: Activity at human recombinant CYP19 expressed in baculovirus-infected BTI-TN-5B1-4 insect cell microsomes assessed as metabolite formation at 5 to 100 uM after 30 mins by HPLC-RA analysis; details: bti-tn-5b1-4, 0.5 h
Liver microsome [3] = assay: Drug metabolism in human liver microsomes assessed as total metabolite formation at 1 to 50 uM after 20 mins by HPLC-RA analysis in presence of CYP2C19 inhibitor tranylcypromine
Liver microsome [4] = assay: Drug metabolism in human liver microsomes assessed as total metabolite formation at 1 to 50 uM after 20 mins by HPLC-RA analysis in presence of mechanism-based CYP2E1 inhibitor DETC and NADPH
Cytochrome P450 4F2 [5] = molecular target: T2, Cytochrome P450 4F2 (Homo sapiens, UniProt P78329); assay: Activity at human recombinant CYP4F2 expressed in baculovirus-infected BTI-TN-5B1-4 insect cell microsomes at 10 uM by HPLC-RA analysis in presence of CYP4F2 and CYP4F12 inhibitor ketoconazole; details: bti-tn-5b1-4, 10 µM
T2 sequence (P78329 whole entry): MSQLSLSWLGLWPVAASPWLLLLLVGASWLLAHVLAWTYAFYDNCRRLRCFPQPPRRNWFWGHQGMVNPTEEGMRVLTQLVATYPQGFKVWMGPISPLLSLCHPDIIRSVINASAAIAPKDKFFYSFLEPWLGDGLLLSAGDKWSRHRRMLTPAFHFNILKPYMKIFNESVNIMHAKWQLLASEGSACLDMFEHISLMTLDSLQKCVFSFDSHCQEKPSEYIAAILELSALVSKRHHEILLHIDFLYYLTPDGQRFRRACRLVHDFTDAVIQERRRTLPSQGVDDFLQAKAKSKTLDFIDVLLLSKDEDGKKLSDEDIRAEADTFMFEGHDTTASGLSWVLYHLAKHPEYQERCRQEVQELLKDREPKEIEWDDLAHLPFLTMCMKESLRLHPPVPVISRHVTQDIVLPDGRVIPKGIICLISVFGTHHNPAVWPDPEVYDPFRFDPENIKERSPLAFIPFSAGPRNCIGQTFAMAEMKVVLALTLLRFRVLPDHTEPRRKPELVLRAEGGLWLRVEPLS

Liver microsome [6] = assay: Drug metabolism in human liver microsomes assessed as metabolite formation at 50 uM treated 15 mins after antibody addition measured after 20 mins by HPLC-RA analysis in presence of CYP2D6-specific monoclonal antibody
Liver microsome [7] = assay: Drug metabolism in human liver microsomes assessed as metabolite formation at 50 uM treated 15 mins after antibody addition measured after 20 mins by HPLC-RA analysis in presence of CYP2E1-specific monoclonal antibody
Liver microsome [8] = assay: Drug metabolism in human liver microsomes assessed as metabolite formation at 50 uM treated 15 mins after antibody addition measured after 20 mins by HPLC-RA analysis in presence of CYP3A4-specific monoclonal antibody
Cytochrome P450 4F2 [9] = molecular target: T2, Cytochrome P450 4F2; assay: Activity at human recombinant CYP4F2 expressed in baculovirus-infected BTI-TN-5B1-4 insect cell microsomes assessed as metabolite formation at 50 uM by HPLC-RA analysis in presence of anti-CYP4F2; details: bti-tn-5b1-4, 50 µM

T1 sequence (P11509 whole entry): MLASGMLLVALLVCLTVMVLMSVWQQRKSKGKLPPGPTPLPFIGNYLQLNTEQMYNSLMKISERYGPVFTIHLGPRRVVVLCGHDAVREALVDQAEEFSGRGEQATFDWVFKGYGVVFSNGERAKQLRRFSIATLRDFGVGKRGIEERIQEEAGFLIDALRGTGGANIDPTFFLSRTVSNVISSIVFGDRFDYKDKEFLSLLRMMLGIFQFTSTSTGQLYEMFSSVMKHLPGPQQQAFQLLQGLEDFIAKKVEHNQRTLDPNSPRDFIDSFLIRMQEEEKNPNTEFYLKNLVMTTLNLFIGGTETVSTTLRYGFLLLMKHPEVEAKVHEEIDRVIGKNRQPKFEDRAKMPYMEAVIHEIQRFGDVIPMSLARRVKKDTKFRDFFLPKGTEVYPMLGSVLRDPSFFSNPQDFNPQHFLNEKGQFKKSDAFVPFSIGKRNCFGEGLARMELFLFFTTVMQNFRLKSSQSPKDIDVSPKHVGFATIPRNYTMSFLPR
Chain of Cytochrome P450 1A1 (P04798 whole entry): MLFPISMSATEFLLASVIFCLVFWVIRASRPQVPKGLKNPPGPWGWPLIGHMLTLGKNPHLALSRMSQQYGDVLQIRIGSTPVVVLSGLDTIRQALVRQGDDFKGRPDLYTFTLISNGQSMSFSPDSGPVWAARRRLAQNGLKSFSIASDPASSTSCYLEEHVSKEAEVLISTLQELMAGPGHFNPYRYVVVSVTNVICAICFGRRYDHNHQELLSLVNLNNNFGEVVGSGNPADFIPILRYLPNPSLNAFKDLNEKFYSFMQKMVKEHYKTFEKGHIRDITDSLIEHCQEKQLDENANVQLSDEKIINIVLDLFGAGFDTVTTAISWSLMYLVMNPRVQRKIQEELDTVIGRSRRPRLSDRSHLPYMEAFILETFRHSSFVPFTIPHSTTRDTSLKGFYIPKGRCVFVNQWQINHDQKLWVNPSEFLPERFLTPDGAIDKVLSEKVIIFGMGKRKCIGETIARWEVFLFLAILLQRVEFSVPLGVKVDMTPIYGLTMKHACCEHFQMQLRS
Chain of Cytochrome P450 2C19 (P33261 whole entry): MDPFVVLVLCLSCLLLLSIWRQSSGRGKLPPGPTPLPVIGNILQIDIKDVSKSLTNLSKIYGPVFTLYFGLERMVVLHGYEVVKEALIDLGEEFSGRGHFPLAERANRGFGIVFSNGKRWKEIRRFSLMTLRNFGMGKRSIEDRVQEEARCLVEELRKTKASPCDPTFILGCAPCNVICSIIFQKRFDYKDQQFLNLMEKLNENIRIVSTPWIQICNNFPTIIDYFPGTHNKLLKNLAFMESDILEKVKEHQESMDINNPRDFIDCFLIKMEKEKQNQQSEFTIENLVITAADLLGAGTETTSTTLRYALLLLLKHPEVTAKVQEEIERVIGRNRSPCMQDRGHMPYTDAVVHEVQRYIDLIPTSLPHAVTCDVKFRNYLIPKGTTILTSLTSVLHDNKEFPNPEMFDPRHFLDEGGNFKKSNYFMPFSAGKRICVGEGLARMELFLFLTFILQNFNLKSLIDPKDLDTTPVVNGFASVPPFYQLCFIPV
Chain of Cytochrome P450 3A5 (P20815 whole entry): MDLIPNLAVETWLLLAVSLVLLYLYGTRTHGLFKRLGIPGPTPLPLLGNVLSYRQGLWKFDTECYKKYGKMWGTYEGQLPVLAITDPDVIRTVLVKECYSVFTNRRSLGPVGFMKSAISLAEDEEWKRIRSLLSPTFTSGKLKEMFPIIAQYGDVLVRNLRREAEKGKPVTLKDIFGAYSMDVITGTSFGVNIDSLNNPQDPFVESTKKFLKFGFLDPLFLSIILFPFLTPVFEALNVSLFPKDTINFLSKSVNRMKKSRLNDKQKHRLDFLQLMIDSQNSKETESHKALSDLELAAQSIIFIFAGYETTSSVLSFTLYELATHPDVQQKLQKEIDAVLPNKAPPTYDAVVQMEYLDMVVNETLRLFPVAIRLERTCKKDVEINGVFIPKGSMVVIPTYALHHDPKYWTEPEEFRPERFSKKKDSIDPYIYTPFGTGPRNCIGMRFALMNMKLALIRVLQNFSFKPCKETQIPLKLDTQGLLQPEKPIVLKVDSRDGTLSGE
Chain of Cytochrome P450 4F3 (Q08477 whole entry): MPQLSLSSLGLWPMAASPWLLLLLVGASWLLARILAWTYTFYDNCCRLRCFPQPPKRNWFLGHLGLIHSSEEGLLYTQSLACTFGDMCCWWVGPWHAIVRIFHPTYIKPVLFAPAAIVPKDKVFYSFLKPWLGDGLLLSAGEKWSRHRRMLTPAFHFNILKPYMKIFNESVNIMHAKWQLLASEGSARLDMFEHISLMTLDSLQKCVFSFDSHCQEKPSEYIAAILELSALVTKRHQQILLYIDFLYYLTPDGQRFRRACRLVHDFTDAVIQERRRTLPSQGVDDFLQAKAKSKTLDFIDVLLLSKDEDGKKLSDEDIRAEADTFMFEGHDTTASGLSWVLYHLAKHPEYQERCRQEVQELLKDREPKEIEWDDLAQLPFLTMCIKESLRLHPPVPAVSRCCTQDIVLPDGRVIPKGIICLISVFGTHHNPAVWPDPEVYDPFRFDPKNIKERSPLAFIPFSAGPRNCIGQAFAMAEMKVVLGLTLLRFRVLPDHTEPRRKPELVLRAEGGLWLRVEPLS
Chain of Aromatase (P11511 whole entry): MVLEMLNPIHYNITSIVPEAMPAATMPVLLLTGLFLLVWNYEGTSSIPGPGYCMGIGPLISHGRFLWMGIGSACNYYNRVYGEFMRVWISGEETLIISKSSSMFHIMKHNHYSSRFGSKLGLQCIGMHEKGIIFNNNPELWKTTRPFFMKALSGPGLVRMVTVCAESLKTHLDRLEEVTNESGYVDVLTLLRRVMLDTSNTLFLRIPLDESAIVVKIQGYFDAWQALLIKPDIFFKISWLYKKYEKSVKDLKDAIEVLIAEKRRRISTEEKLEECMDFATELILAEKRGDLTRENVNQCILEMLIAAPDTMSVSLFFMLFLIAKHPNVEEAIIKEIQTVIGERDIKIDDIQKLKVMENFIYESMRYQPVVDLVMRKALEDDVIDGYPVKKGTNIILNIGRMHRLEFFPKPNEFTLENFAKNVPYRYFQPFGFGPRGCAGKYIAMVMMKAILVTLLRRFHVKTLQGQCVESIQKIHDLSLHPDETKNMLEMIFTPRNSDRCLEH
Chain of Cytochrome P450 2D6 (P10635 whole entry): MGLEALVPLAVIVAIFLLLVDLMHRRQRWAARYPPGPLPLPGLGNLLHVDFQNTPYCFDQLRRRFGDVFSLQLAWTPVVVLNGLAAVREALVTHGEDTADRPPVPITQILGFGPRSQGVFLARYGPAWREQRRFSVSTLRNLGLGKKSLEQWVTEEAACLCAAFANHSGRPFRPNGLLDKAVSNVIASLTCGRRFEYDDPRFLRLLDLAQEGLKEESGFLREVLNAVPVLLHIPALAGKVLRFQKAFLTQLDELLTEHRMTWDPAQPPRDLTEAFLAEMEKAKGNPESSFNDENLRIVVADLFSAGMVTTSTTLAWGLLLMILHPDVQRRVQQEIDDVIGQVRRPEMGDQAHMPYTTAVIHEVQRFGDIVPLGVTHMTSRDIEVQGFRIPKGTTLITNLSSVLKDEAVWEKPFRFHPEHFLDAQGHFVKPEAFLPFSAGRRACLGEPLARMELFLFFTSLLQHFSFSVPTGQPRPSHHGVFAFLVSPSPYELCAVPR
Chain of Cytochrome P450 2C8 (P10632 whole entry): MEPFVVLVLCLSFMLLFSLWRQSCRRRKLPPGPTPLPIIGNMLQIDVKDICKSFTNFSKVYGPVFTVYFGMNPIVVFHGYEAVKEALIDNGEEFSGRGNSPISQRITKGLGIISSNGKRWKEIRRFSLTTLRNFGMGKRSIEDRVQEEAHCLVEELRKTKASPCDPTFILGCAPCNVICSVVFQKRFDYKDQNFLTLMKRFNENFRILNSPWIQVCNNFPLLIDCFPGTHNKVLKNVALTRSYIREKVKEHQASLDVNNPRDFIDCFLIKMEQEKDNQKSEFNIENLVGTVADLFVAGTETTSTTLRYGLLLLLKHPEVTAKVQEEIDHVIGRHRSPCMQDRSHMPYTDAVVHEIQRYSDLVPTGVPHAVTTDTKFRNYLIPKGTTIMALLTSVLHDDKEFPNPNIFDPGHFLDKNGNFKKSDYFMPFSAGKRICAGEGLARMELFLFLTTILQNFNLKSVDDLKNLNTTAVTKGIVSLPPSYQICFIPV
Chain of Cytochrome P450 1B1 (Q16678 whole entry): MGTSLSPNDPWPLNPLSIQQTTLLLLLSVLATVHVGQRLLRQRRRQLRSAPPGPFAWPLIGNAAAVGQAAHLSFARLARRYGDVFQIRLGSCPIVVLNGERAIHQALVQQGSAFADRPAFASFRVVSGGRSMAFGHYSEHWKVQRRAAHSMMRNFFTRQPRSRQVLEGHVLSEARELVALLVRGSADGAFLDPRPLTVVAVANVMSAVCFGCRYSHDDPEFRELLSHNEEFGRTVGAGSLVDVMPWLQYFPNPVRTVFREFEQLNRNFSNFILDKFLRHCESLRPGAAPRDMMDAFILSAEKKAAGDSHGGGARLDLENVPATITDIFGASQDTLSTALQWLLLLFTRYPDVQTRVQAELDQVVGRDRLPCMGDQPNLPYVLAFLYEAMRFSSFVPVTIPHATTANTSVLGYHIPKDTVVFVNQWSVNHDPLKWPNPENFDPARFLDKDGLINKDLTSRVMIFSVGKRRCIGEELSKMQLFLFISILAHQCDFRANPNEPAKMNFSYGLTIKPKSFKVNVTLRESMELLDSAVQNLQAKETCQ

Drug metabolism (Cytochrome P450 2A6 [1]): metabolite_not_detected
Drug metabolism (Cytochrome P450 2C8): metabolite_not_detected
Drug metabolism (Cytochrome P450 2C19): metabolite_not_detected
Drug metabolism (Cytochrome P450 2D6): metabolite_not_detected
Drug metabolism (Cytochrome P450 1A2): metabolite_not_detected
Drug metabolism (Cytochrome P450 3A4): metabolite_not_detected
Drug metabolism (Cytochrome P450 2E1): metabolite_detected
Drug metabolism (Cytochrome P450 1A1): metabolite_not_detected
Drug metabolism (Cytochrome P450 1B1): metabolite_not_detected
Drug metabolism (Cytochrome P450 2A6 [2]): metabolite_not_detected
Drug metabolism (Cytochrome P450 2B6): metabolite_not_detected
Drug metabolism (Cytochrome P450 2C9): metabolite_not_detected
Drug metabolism (Cytochrome P450 2J2): metabolite_not_detected
Drug metabolism (Cytochrome P450 3A5): metabolite_not_detected
Drug metabolism (Cytochrome P450 4F3): metabolite_not_detected
Drug metabolism (Aromatase): metabolite_not_detected
Drug metabolism (Liver microsome [3]): metabolite_detected
Drug metabolism (Liver microsome [4]): metabolite_detected
Drug metabolism (Cytochrome P450 4F2 [5]): metabolite_not_detected
Drug metabolism (Liver microsome [6]): metabolite_detected
Drug metabolism (Liver microsome [7]): metabolite_detected
Drug metabolism (Liver microsome [8]): metabolite_detected
Drug metabolism (Cytochrome P450 4F2 [9]): metabolite_not_detected
SMILES: CCCCCCCCc1ccc(CC[14C](N)(CO)CO)cc1.Cl

— ChEMBL document CHEMBL3525920, “CYP4F enzymes are responsible for the elimination of fingolimod (FTY720), a novel treatment of relapsing multiple sclerosis” (Drug Metab Dispos, 2011)
